Measurements taken from US20030224469A1, “Methods and kits for assays utilizing fluorescence polarization” (priority 2002, published 2003).
Read-outs that look alike come from different tables or passages of the source.

What was measured:
[1] = biological target: T1, T-Cell Protein Tyrosine Phosphatase (TC PTP) (Homo sapiens, UniProt P17706); assay: FP-based protein tyrosine phosphatase assay (dual color); format: biochemical
T1 construct: purchased New England Biolabs
T1 sequence (P17706 1-317 limits assumed): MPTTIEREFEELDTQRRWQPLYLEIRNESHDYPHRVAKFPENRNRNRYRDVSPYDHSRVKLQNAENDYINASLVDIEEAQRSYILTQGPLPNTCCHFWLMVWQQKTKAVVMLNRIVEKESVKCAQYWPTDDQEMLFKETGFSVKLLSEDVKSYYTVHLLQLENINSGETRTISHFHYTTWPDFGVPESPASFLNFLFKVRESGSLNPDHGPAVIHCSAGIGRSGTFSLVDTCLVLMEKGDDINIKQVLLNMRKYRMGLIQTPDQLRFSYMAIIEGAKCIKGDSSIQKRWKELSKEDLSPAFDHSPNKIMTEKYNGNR
Protocol: The enzymatic activity of T-Cell Protein Tyrosine Phosphatase (TC PTP) was measured in a dose-dependent manner by incubating different concentrations of TC PTP (New England Biolabs; Beverly, Mass.), from 0.05 U/μL to 0.0005 U/μL, with 50 μL of a mixture of an anti-phosphotyrosine antibody, a fluorescein-labeled phosphopeptide and a tetramethylrhodamine-labeled phosphopeptides. The final reaction volume was […]. Two control assays were performed. […] Fluorescence polarization measurements were performed using the appropriate excitation and emission filters appropriate for each fluorophore. Increasing concentrations of TC PTP result in an increased rate of dephosphorylation of the labeled phosphopeptides, which is indicated by a decrease in polarization (due to the inability of the dephosphorylated peptide to bind to the antibody).
In a black, 96-well plate (DYNEX; Chantilly, Va.), Na3VO4 (Sigma; St. Louis, Mo.) was serially diluted 2-fold into 24 wells from a starting concentration of 500 nM in a volume of 50 μL. TC PTP was then added to each well so that the final concentration of the enzyme would be 0.005 U/μL per assay. […] At the end of the incubation, 10 μL of 550 μM Na3VO4 was added to quench all of the reactions, and the polarization for each sample was measured on a TECAN Polarion using the appropriate excitation and emission filters appropriate for each fluorophore. […]

[2] = biological target: glucocorticoid receptor (GR) (Homo sapiens, UniProt P04150)
Protocol: A non-labeled steroid (dexamethasone) was serially diluted in 10 mM potassium phosphate pH 7.4,20 mM Na2MoO4, 2% DMSO, 0.1 mM EDTA, 0.5 mM DTT buffer containing 0.1 mM stabilizing peptide. This steroid was used as a competitive binder to glucocorticoid receptor (GR). […] Control wells were also prepared without either unconjugated fluorescein or TMR present. As in Examples 1 and 2, two separate fluorescence polarization values were obtained for each sample using a green filter or a red filter.

Chain of glucocorticoid receptor (GR) (P04150 whole entry, species assumed): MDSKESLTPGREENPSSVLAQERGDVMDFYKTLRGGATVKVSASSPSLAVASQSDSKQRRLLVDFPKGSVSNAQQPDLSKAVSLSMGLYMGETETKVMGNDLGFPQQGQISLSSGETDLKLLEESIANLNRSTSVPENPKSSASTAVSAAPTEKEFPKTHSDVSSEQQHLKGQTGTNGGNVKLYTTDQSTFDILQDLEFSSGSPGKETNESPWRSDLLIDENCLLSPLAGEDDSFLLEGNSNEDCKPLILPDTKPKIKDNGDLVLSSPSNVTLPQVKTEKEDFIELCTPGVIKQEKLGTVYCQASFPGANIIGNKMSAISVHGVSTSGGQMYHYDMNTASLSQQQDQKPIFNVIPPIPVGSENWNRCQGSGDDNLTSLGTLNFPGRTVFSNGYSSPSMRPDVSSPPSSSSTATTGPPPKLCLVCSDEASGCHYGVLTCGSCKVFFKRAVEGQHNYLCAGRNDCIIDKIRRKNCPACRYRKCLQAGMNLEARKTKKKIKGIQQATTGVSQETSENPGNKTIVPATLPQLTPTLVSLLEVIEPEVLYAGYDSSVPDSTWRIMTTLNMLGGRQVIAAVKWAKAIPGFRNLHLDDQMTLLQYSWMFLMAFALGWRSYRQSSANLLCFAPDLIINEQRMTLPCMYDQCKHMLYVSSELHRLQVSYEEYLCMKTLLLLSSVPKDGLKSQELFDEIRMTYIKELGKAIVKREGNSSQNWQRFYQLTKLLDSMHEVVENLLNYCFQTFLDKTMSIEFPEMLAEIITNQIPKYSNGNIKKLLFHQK

Row | Molecule | inhibition of TC PTP-dependent change in polarization ([1]; 50 μM Na3VO4) | IC50 ([1]; TC PTP 0.005 U/μL, 15 minutes incubation, nonlinear regression of semi-log plot) | fluorescence polarization ([2]; high concentrations of steroid competitor) | fluorescence polarization ([2]; low concentration of competitor)
1 | [Na+].[Na+].[Na+].[O]=[V]([O-])([O-])[O-] [Na3VO4] | completely inhibited | 4 nM | – | –
2 | dexamethasone [steroid competitor] | – | – | about 60 mP | ~260 mP
